These results are taken from ChEMBL document CHEMBL4152360 (Bioorg Med Chem, 2018).

The target of assay [1] is T1, Casein kinase II subunit alpha (Homo sapiens, UniProt P68400). Description: Displacement of ARC-1504/ARC-1513-5O from CK2alpha (unknown origin) (1 to 335 residues) after 15 to 60 mins by luminescence assay.
For assay [2], the target named is T1, Casein kinase II subunit alpha. The assay is described as follows: Displacement of ARC-1504/ARC-1513-5O from CK2alpha (unknown origin) (1 to 335 residues) assessed as photoluminescence lifetime using deoxygenated solution after 15 to 60 mins by luminescence assay.
Assay [3] has the same target. Description: Displacement of ARC-1504/ARC-1513-5O from CK2alpha (unknown origin) (1 to 335 residues) assessed as photoluminescence lifetime using non-deoxygenated solution after 15 to 60 mins by luminescence assay.
Assay [4] shares this target. Description: Displacement of ARC-1504/ARC-1513-5O from CK2alpha (unknown origin) (1 to 335 residues) assessed as maximal luminescence intensity of the complex after 15 to 60 mins by luminescence assay relative to ARC-1527.
The target in assay [5] is Casein kinase II subunit alpha' (Homo sapiens) (UniProt P19784). The assay is described as follows: Displacement of ARC-1504/ARC-1513-5O from CK2alpha' (unknown origin) (1 to 335 residues) assessed as photoluminescence lifetime using non-deoxygenated solution after 15 to 60 mins by luminescence assay.
In assay [6] the target is T1, Casein kinase II subunit alpha. The assay is described as follows: Displacement of 5-TAMRA-labeled ARC-1530 from CK2alpha (unknown origin) (1 to 335 residues) after 15 to 60 mins by luminescence assay.
Assay [7] addresses T2, Casein kinase II subunit alpha (Mus musculus) (UniProt Q60737).
T2 sequence (whole entry): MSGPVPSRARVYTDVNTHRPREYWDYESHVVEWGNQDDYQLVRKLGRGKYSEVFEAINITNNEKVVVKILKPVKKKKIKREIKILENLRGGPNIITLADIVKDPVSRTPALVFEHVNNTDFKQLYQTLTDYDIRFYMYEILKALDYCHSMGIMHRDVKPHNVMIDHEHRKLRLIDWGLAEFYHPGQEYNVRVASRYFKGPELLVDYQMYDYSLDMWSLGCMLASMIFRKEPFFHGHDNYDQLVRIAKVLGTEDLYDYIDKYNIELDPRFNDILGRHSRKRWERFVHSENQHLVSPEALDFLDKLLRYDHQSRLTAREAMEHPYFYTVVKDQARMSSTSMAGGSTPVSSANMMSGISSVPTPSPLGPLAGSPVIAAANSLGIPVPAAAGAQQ
Description: Binding affinity to RFP-tagged CK2alpha in mouse NIH/3T3 cell lysate at 10 nM in presence of CK2 inhibitor CX-4945 by luminescence assay.

Assay [8] concerns the target T2, Casein kinase II subunit alpha (Mus musculus). Description: Binding affinity to RFP-tagged CK2alpha in mouse NIH/3T3 cell lysate at 10 nM by luminescence assay relative to native CK2.
The species named for assay [9] is Mus musculus. The assay is described as follows: Binding affinity to CK2 in mouse NIH3T3 cell lysate at 10 nM by luminescence assay.
The species named for assay [10] is Mus musculus. The assay is described as follows: Binding affinity to CK2 in mouse NIH3T3 cell lysate at 10 nM in presence of CK2 inhibitor CX-4945 by luminescence assay.
Assay [11] concerns the target T2, Casein kinase II subunit alpha (Mus musculus). The assay is described as follows: Binding affinity to RFP-tagged CK2alpha in mouse NIH/3T3 cell lysate at 10 nM by luminescence assay.

pKd: −log10 of the molar value. Activity calls are given as the source filed them. The calls are words filed in the database; no cut-off is given here.

What is called pKd is the Kd on a negative log10 scale, so that one unit is a factor of ten.

For the molecule `Nc1ncc(-c2ccc(C(=O)O)cc2)s1`, in assay [1], the pKd was 7.32.

Regarding `CN(C)c1ccc2c(-c3ccc(C(=O)NCCCC[C@@H](NC(=O)[C@@H](CC(=O)O)NC(=O)[C@@H](CC(=O)O)NC(=O)[C@@H](CC(=O)O)NC(=O)[C@@H](CC(=O)O)NC(=O)[C@@H](CC(=O)O)NC(=O)[C@@H](CC(=O)O)NC(=O)CCCCCNC(=O)CCC(=O)Nc4ncc(-c5ccc(C(=O)O)cc5)s4)C(=O)O)cc3C(=O)[O-])c3ccc(=[N+](C)C)cc-3oc2c1`, the Time in [2] is 165 microsec; in assay [3], 62 microsec; in [5] it was 62 microsec. The fold change (FC) in assay [4] is 76. Also, in assay [1], the pKd is 9.40.

`NCCCC[C@@H](NC(=O)[C@@H](CC(=O)O)NC(=O)[C@@H](CC(=O)O)NC(=O)[C@@H](CC(=O)O)NC(=O)[C@@H](CC(=O)O)NC(=O)[C@@H](CC(=O)O)NC(=O)[C@@H](CC(=O)O)NC(=O)CCCCCNC(=O)CCC(=O)Nc1ncc(-c2ccc(C(=O)O)cc2)[se]1)C(=O)O`: the outcome in [6] was Active. For the same molecule, the Time in assay [3] is 55 microsec. In addition, the fold change (FC) in assay [4] came to 46. Moreover, in [1], the pKd was 9.47.

Consider `CN(C)c1ccc2c(-c3ccc(C(=O)NCCCC[C@@H](NC(=O)[C@@H](CC(=O)O)NC(=O)[C@@H](CC(=O)O)NC(=O)[C@@H](CC(=O)O)NC(=O)[C@@H](CC(=O)O)NC(=O)[C@@H](CC(=O)O)NC(=O)[C@@H](CC(=O)O)NC(=O)CCCCCNC(=O)CCC(=O)Nc4ncc(-c5ccc(C(=O)O)cc5)[se]4)C(=O)O)cc3C(=O)[O-])c3ccc(=[N+](C)C)cc-3oc2c1`, for which the Time in [2] was 58 microsec; in assay [3], 39 microsec; in assay [5], 39 microsec. Further, the outcome (in [7]; in the assay filed under Mus musculus [10]) was inactive. The fold change (FC) in assay [8] is 10; in assay [4], 5300. The result (in the assay filed under Mus musculus [9]; in [11]) was Active. The molecule also showed a pKd in assay [1] of 9.07.
